Experimental data as given in patent US8889731B2, “Compounds, compositions and methods for repelling blood-feeding arthropods and deterring their landing and feeding” (Contech Enterprises Inc., priority 2007, dated 2014).

What was measured:
[1] = system: mosquitoes; experiment: General bioassay procedure with garlic oil, its components and fractions (mosquito species not given); format: in vivo
Description: (§1) Candidate repellents and deterrents were bioassayed according to a modified protocol from the World Health Organization (1996). At least 1 hour prior to each bioassay, 75 host-seeking non blood-fed, nulliparous, 5- to 8-day-old female Aedes aegypti, Anopheles gambiae or Culex quinquefasciatus were placed into a wood-framed cage (26.5 cm on each side and 42.5 cm high) with a wooden floor, screened mesh sides and top, and a clear acrylic front fitted with a cotton stockinette sleeve (10 cm diameter). The test subject's arm was covered with an elbow-length polyethylene glove with an excised patch (16.6 cm long, 6 cm wide) to expose the ventral forearm of the test subject. Candidate deterrents were formulated in mineral (paraffin) oil and applied to the exposed forearm 5 min prior to inserting the arm into the cage. The inserted arm remained in the cage for 3 min every 30 min. Prior to each 3-min bioassay period, the hand of the untreated arm was inserted into the cage to ascertain that it received 10 bites within 30 sec as an indication of “biting pressure”.
(§2) The bioassay was terminated when the treated arm received ≧2 bites in one 3-min bioassay period or one bite in each of two consecutive bioassay periods. The time elapsed from experiment initiation to first bite was recorded as deterrent failure or complete protection time.
(§3) N,N-diethyl-m-toluamide formulated in ethanol at a corresponding dose served as a positive control, and mineral oil by itself served as a negative control. On each day, only one candidate compound was tested, ensuring that any residual material in the chamber had disappeared before the next bioassay.
Garlic oil (Allium sativum—Mexico; Clearwater Soap Works, Box 1775 RR1, Clearwater, BC V0E 1N0, Canada) was formulated in mineral oil and tested using the general bioassay procedure described in EXAMPLE 2 at a dose of 0.1 mg per cm^2 of arm surface. It expressed repellence and deterrence for ˜30 min.
Some of the 10 components in FIG. 1 were bioassayed singly (see general bioassay procedure) and in various combinations, all of which were as deterrent to mosquitoes as garlic oil.
To determine the most deterrent component(s) in garlic oil, it was fractionated by HPLC into four fractions, each containing one or more of the EAD-active components (compounds 1-10 in FIG. 1 and 11-14 in TABLE 2). Each fraction was then bioassayed and shown to be similarly effective in repelling and deterring mosquitoes.
(§4) Components with high molecular weight (>250 daltons) are advantageous in that they: 1) dissipate slowly from treated surfaces; 2) provide long-lasting protection against mosquitoes and 3) convey little, if any, offensive smell. The relative abundance of such components was enhanced by treating garlic oil under vacuum, thus stripping away lower-boiling components. In GC-EAD analyses of the high-boiling residue, four components elicited responses from mosquito antennae.

[2] = system: male or female Aedes aegypti antennae; experiment: Coupled gas chromatographic-electroantennographic detection (GC-EAD) of garlic oil extract
Description: FIG. 1 illustrates flame ionization detector (FID) and electroantennograhic detector (EAD: male or female Aedes aegypti antennae) responses to aliquots of the low boiling temperature portion of garlic oil extract. Chromatography: Hewlett Packard (HP) gas chromatograph equipped with a fused silica column (30 m×0.32 mm ID) coated with DB-5; injector and detector temperature: 250° C.; temperature program: 50° C.
Aliquots of garlic oil extracts were then subjected to coupled gas chromatographic-electroantennographic detection (GC-EAD) analysis. Fourteen components (10 shown in FIG. 1) elicited responses from female or male mosquito antennae. Some of these components were isolated by high-performance liquid chromatography (HPLC) for identification by nuclear magnetic resonance spectroscopy (NMR). Other components were identified (compounds 11-14 in TABLE 2) by coupled GC-mass spectrometry and by retention index calculations. […] Four of the 10 components in FIG. 1 were tentatively identified by comparing their mass spectra and retention indices with those reported in the literature (Block et al. 1998).
as §4

[3] = system: Aedes aegypti; experiment: Arm-in-cage repellent/deterrent bioassay on exposed human forearm (modified WHO protocol), Aedes aegypti; format: in vivo
Description: as §1, §2, §3
To determine the repellence and deterrence of 8-allylsulfanyloctan-1-ol against Aedes aegypti, a 5%, 10% or 25% formulation of 8-allylsulfanyloctan-1-ol in mineral oil was applied in Experiments 1-3 at a dose of 1.5 mg (total composition) per cm^2 to the skin of the test person, and was bioassayed according to the protocol described under EXAMPLE 2. In Experiment 4, mineral oil by itself served as a negative control and was bioassayed at the same dose (1.5 mg per cm^2) as in Experiments 1-3. Each of Experiments 1-4 was replicated four times.
To compare the repellence and deterrence against Aedes aegypti caused by 8-allylsulfanyloctan-1-ol as a single active ingredient and by 8-allylsulfanyloctan-1-ol in combination with vanillin as a second active ingredient, we tested a 6.7% emulsion of vanillin (Experiment 14), a 6.7% emulsion of 8-allylsulfanyloctan-1-ol (Experiment 15), and a 13.4% emulsion of 8-allylsulfanyloctan-1-ol plus vanillin (1:1 ratio) (Experiment 16). 8-Allylsulfanyloctan-1-ol and vanillin were formulated in Emulsion No. 1 (see EXAMPLE 9). In each of Experiments […], test stimuli were applied at a dose of 1.5 mg per cm^2 to the skin of the test person, and were bioassayed according to the protocol described under EXAMPLE 2. In Experiment 17, Emulsion No. 1 served as a positive control and was tested at the same dose (1.5 mg per cm^2) as in Experiments 14-16.
To be able to compare the repellence and deterrence caused by N,N-diethyl-m-toluamide and by 8-allylsulfanyloctan-1-ol plus vanillin in Emulsion No. 1 (EXAMPLE 9), Experiment 26 tested a 6.7% formulation of N,N-diethyl-m-toluamide in ethanol (the best formulant for DEET) for protection from bites by Aedes egypti. In each replicate, a dose of 1.5 mg per […] was applied to the skin of the test person and bioassayed according to the protocol described under EXAMPLE 2.
To be able to further compare the deterrence caused by N,N-diethyl-m-toluamide with that caused by 8-allylsulfanyloctan-1-ol plus vanillin, Experiment 27 tested a 10.4% formulation of N,N-diethyl-m-toluamide in ethanol, and Experiment 28 tested 8-allylsulfanyloctan-1-ol (10.4%) plus vanillin (7.9%) in Emulsion No. 2 (EXAMPLE 10). […]

Q: With C=CCSSCC(C)SSCC=C (stereo not drawn) [Compound 12, 6-methyl-4,5,8,9-tetrathiadodeca-1,11-diene] as the molecule, how does the “repellent and deterrent effect in bioassays (in words)” value [1] read?
A: strong repellent and deterrent effect

Q: What about the “electroantennographic (EAD) response of mosquito antennae” value [2] of the same molecule?
A: Antennal stimulatory

Q: What about the pest or weed control at 0.1 mg/cm2 ([3]; Aedes aegypti, topical, Dosage 0.1 mg/cm^2, (C-T)/C x 100 at time of failure, read-out: Percent repellence) of the same molecule?
A: 87%

Q: What about the pest or weed control at 0.5 mg/cm2 ([3]; Aedes aegypti, topical, Dosage 0.5 mg/cm^2, (C-T)/C x 100 at time of failure, read-out: Percent repellence) of the same molecule?
A: 97%

Q: And the Failure time ([3]; Dosage 0.1 mg/cm^2, 0 = immediate failure)?
A: 0 min

Q: What about the Failure time ([3]; Dosage 0.5 mg/cm^2) of the same molecule?
A: 102 min
